The target in one assay is T1, human thyroid receptor (Homo sapiens, UniProt P10828).
T1 sequence (P10828 1-461): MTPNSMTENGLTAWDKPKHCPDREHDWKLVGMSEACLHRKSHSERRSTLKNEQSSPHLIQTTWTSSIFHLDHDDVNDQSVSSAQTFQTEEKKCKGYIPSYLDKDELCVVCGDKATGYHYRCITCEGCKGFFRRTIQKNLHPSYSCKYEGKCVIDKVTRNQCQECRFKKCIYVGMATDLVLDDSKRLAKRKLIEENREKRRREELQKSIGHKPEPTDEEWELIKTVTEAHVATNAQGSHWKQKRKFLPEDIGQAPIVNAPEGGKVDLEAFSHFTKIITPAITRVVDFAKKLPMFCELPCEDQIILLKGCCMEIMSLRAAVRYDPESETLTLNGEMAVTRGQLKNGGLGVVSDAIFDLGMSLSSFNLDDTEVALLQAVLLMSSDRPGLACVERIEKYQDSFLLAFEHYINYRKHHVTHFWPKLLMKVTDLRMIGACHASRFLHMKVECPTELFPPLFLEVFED
Kind of assay: Thyroid hormone receptor binding affinity. The text has this: Partial agonist/antagonists also may exist. (Suitable ligands may be agonists or antagonists).

A further assay has as its system Skin-2 model ZK1301. Kind of assay: Skin-2 model: mRNA expression by RT-PCR, semi-quantitative.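 Note: Three-dimensional human skin equivalent of dermal fibroblasts and foreskin keratinocytes at an air-liquid interface, exposed for 10 or 48 h, mRNA measured in total RNA by RT-PCR.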
The subject of a further assay is Hairless mice SKH-1. The experiment in a line: Photodamaged skin: UV-B irradiated hairless mice treated with cream for 16 weeks. Type of assay: in vivo. As to conditions: cream for 16 weeks after 12 weeks of UV-B irradiation, compared to untreated irradiated animals. How it is done:
Hairless mice SKH-1 are UV-B irradiated according to the schedule of (22). After 12 weeks of irradiation, significant wrinkling results. The mice are treated with the thyroid hormone Triac-containing cream for a period of 16 weeks after irradiation. The degree of wrinkling appearing on the irradiated mice is compared to untreated, irradiated animals to which the appropriate pharmaceutical base is not applied.

The next assay has as its system phosphodiesterase. The settings on record: in vitro, isolated adipocytes; FR2354101; cited from earlier work.
[1] abbreviates: Table 3, Skin-2 model, 10uM, transcriptional response score.
Setting [2] is: Table 3, Skin-2 model, 10uM, transcriptional response score, listed as L-T-I.
The mark [3] stands for this setting: Skin-2 model, 1 µM, semi quantitative mRNA change vs control.
The mark [4] stands for this setting: Skin-2 model, 50 nM, semi quantitative mRNA change vs control.
[5] abbreviates: Table 3, Skin-2 model, 50nM, transcriptional response score.
[6] abbreviates: Table 3, Skin-2 model, 1 µM, transcriptional response score.

The values below come from EP0831769B2, “NOVEL USES FOR THYROID HORMONES OR THYROID HORMONE-LIKE COMPOUNDS” (Lavin, Dr., Thomas N., priority 1995, dated 1996).

Structures are written as SMILES. “And” between values parts separate entries of the source, which are not always exact repeats. Identical values can stand only once. “Also recorded” adds a separate entry of the source. Like-named read-outs stand apart in the source and are kept apart here.

Excerpt for Skin-2 model ZK1301: A novel synthetic human skin, Skin- 2 model ZK1301 (Advanced Tissue Sciences, La Jolla (USA)) is composed of a three dimensional human skin culture consisting of a dermal fibroblast layer and human foreskin keratinocytes which can be grown with an air-keratinocyte interface to promote normal differentiation and cornification of the model skin.
The following were components of the Skin^2 kits: 9x9 mm skin tissues on agarose, 6-well plates, and Millicell inserts. Two media based on Dulbecco's Modification of Eagle's medium were also included: Maintenance medium (containing 5% fetal calf serum) and serum-free assay medium.
All-trans-retinoic acid, 1,25-(OH)2-vitamin D3, and betamethasone were purchased from Sigma Chemicals (Stockholm). Upon arrival the skin tissues were placed dermal-side down into the center of a Millicell in a 6-well plate well containing prewarmed maintenance medium. The tissues were incubated at 37°C in an atmosphere of 5% CO2 in air. After 24 h the maintenance medium was exchanged.
Following another 24 h the Maintenance medium was removed and replaced by Serum- free assay medium containing 5% "stripped" fetal calf serum. Substances were added within 1 h after medium exchange and the tissues were incubated for 10 or 48 h in the presence of the substances. Medium and substances were changed after 24 h incubation. The cells were grown at an air - liquid interface. At the end of the 48 h-incubation period two tissues were pooled together in a sterile plastic centrifugation tube. The tissue was snap frozen on solid ice (-60°C) and stored at -70°C until used. Duplicate samples were included for each treatment.
Total RNA was extracted from Skin^2 -samples and human skin biopsies using Ultraspec II (Biotecx Laboratories, Inc., Houston, TX). One ml of Ultraspec II was added to each sample which were homogenized by using a Polytron for 2x20 sec at setting 6. Total RNA was extracted according to the protocol supplied by the manufacturer. […] After incubation at 37°C for 60 min, the reaction was stopped by heating at 75°C for 10 min and the mixture stored at -70°C until cDNA amplification was performed.
The tubes were placed in a Thermal cycler (Perkin-Elmer) programmed as follows: (a) 90°C for 90 s; (b) variable number of cycles (see Table 1) of the following sequential steps: 60 s at 94°C, 75 s at annealing temp (see Table 1), 90 s at 72°C; and (c) 7 min at 72°C. […] Gels were recorded by videoprints. The amount of product was estimated on the videopoint or directly on the gel. The amount of transcripts in each lane were compared in relation to two control samples run in parallel.

`N[C@@H](Cc1ccc(Oc2ccc(O)cc2)c(I)c1)C(=O)O` [L-T-1, 3-idodo-L-Thronine] gave a Ki at human thyroid receptor of 20000 nM. Further, the “binding to the thyroid hormone receptor (in words)” value at human thyroid receptor (b58: even at the tested ten micromolar concentration) is listed as “no thyroid hormone receptor binding activity; also recorded: binds poorly”. In the assay with Skin-2 model ZK1301 (setting [1]), the “col a-1” value came out at 0.5, the “col a-3” value was determined as 0.5, the “gf(pdgf-L)” value amounted to 1 and the k1 turned out to be 0. In the assay on Skin-2 model ZK1301 (setting [1]), this molecule returned a k10 of 0, a k16 of 0, a scce of 1 and a trans gk of 1. In addition, in the assay with Skin-2 model ZK1301 (setting [2]), the “col a-1” value is “only modest effects”, the “col a-3” value is “only modest effects”, the k1 result is given as “no inhibition” and the k10 result is “no inhibition”. Further, in the assay with Skin-2 model ZK1301 (setting [2]), the scce result was “positive effect” and the trans gk entry is on record as “positive effect”.
Consider `CC1=C(/C=C/C(C)=C/C=C/C(C)=C/C(=O)O)C(C)(C)CCC1` [RA, All-trans-retinoic acid], for which, in the assay on Skin-2 model ZK1301 (setting [3]), the IL-6 is recorded as -1, the “col 1A-1” value turned out to be 2, the “col 3A-1” value was found to be 1 and the crabp-II was 1. Further, in the assay with Skin-2 model ZK1301 (setting [3]), the “ctgf(pdgf-L)” value is 1, the k1 was -3, the k10 is -1 and the k16 is on record as -0.5. In the assay with Skin-2 model ZK1301 (setting [3]), this molecule showed a k19 of -1, a tgfbeta-2 of 2 and a trans gk of -3.
As to `O=C(O)Cc1cc(I)c(Oc2ccc(O)c(I)c2)c(I)c1` [Triac, tri-iodothyroacetic acid], in the assay with Hairless mice SKH-1, the skin collagen entry is recorded as “increase” and the “wrinkle pattern of the animals” value is on record as “significant decrease”. Moreover, the “dose range at which phosphodiesterase inhibition and cyclic AMP increase occur” value in the assay on phosphodiesterase is “approximately 10^-4 M”. In the assay on Skin-2 model ZK1301 (setting [4]), the “ctgf(pdgf-L)” value came out at 1, the k16 is on record as -1 and the k19 is reported as -1. Further, in the assay on Skin-2 model ZK1301 (setting [3]), the IL-6 is -0.5, the “col 1A-1” value was 2, the “col 3A-1” value was 1 and the crabp-II was -1. In the assay with Skin-2 model ZK1301 (setting [3]), this molecule displayed a k1 of -2, a k10 of -2, a k16 of -0.5 and a k19 of -1. In the assay on Skin-2 model ZK1301 (setting [3]), this molecule yielded a scce of -2, a tgfbeta-2 of 2 and a trans gk of -3. In the assay on Skin-2 model ZK1301 (setting [5]), this molecule yielded a k1 of -2 and a k16 of 0. Besides, in the assay on Skin-2 model ZK1301 (setting [6]), the “col a-1” value is 1; the “col a-3” value came out at 1; the “gf(pdgf-L)” value is 2 and 1; the k1 is -1. In the assay with Skin-2 model ZK1301 (setting [6]), the k16 was 0 and the trans gk was -0.5.
In the case of `C[C@H]1C[C@H]2[C@@H]3CCC4=CC(=O)C=C[C@]4(C)[C@@]3(F)[C@@H](O)C[C@]2(C)[C@@]1(O)C(=O)CO` [betameth, betamethasone], in the assay with Skin-2 model ZK1301 (setting [3]), the IL-6 is reported as -2, the “col 1A-1” value was 0.5, the “col 3A-1” value is -0.5 and the crabp-II is -1. Moreover, in the assay with Skin-2 model ZK1301 (setting [3]), the “ctgf(pdgf-L)” value was found to be 1, the k1 is on record as -3, the k10 was -0.5 and the k16 is on record as -1. In the assay on Skin-2 model ZK1301 (setting [3]), this molecule came in with a k19 of -0.5, a scce of -1, a tgfbeta-2 of 0 and a trans gk of -1.
For `N[C@@H](Cc1cc(I)c(Oc2ccc(O)c(I)c2)c(I)c1)C(=O)O` [compound number 1, Trilodothyronine], in the assay with Skin-2 model ZK1301 (setting [6]), the “col a-1” value was 1, the “col a-3” value came to 2, the “gf(pdgf-L)” value turned out to be 1 and the k1 is -2. Besides, in the assay on Skin-2 model ZK1301 (setting [6]), the k10 is recorded as -0.5, the k16 turned out to be 0, the scce worked out at 0.5 and the trans gk is 0.
Regarding `O=C(O)c1cc(I)c(Oc2ccc(O)c(I)c2)c(I)c1` [compound number 2], the Ki at human thyroid receptor came out at 0.1 nM. Besides, in the assay with Skin-2 model ZK1301 (setting [6]), the “col a-1” value was found to be 2, the “col a-3” value amounted to 1, the “gf(pdgf-L)” value stood at 1 and the k1 is -1. In the assay on Skin-2 model ZK1301 (setting [6]), this molecule displayed a k10 of 0, a k16 of 0, a scce of 0.5 and a trans gk of 0.5.
For the molecule `N[C@@H](Cc1cc(I)c(Oc2cc(I)c(O)c(I)c2)c(I)c1)C(=O)O` [compound number 3, Thyroxine], in the assay with Skin-2 model ZK1301 (setting [6]), the “col a-1” value is 2, the “col a-3” value turned out to be 0.5, the “gf(pdgf-L)” value stood at 1 and the k1 is -2. In the assay on Skin-2 model ZK1301 (setting [6]), the k10 is reported as -1, the k16 is listed as 0, the scce is on record as 0 and the trans gk was found to be 1.
The molecule `NC(Cc1cc(Br)c(Oc2ccc(O)c(Cc3ccc(=O)[nH]n3)c2)c(Br)c1)C(=O)O` (stereo not shown) [compound number 5] returned an inhibitory constant (Ki) on human thyroid receptor of 8 nM. Further, the “relative selectivity of gene responses” value in the assay with Skin-2 model ZK1301 (Skin-2 model, 1 µM, epidermal differentiation genes versus collagen genes) is “relative selectively for keratin 1, tranglutaminase K and SCCE responses over collagen responses”. In addition, in the assay with Skin-2 model ZK1301 (setting [6]), the “col a-1” value stood at 0, the “col a-3” value was determined as 0 and the k16 is recorded as -0.5.
`Cc1cc(C[C@H](N)C(=O)O)cc(C)c1Oc1ccc(O)c(C(C)C)c1` [compound number 6, 1-3,5-Dimethyl-3'-isopropylthyronine]: at human thyroid receptor (Table 3, binding affinity to the human thyroid receptor, read-out: Ki), the Ki came out at 75 nM. In the assay on Skin-2 model ZK1301 (setting [6]), the “col a-1” value worked out at 1, the “col a-3” value stood at 0.5, the “gf(pdgf-L)” value was determined as 1 and the k1 is reported as -2. In the assay with Skin-2 model ZK1301 (setting [6]), this molecule showed a k10 of -1, a k16 of 0, a scce of -1 and a trans gk of -2.
Molecule `Cc1cc(NC(=O)C(=O)O)cc(C)c1Oc1ccc(O)c(C(C)C)c1` [compound number 7, N-[3,5-Dimethy-4-(4'-hydroxy-3'-isopropylphenoxy)-phenyl]oxamic Acid] displayed a Ki on human thyroid receptor of 0.1 nM. Besides, in the assay with Skin-2 model ZK1301 (setting [6]), the “col a-1” value is listed as 1, the “col a-3” value came to 1, the “gf(pdgf-L)” value is given as 1 and the k1 is -1. In the assay on Skin-2 model ZK1301 (setting [6]), this molecule returned a k10 of 1, a k16 of 0.5, a scce of -1 and a trans gk of -1.
Consider `C=C1C(=CC=C2CCCC3(C)C2CCC3C(C)CCCC(C)(C)O)CC(O)CC1O` (stereo not shown) [vit D, 1,25-(OH)2-vitamin D3], for which, in the assay with Skin-2 model ZK1301 (setting [3]), the IL-6 is listed as -1, the “col 1A-1” value amounted to 2, the “col 3A-1” value came to 2 and the crabp-II is -1. Moreover, in the assay with Skin-2 model ZK1301 (setting [3]), the “ctgf(pdgf-L)” value is 0, the k1 amounted to 0, the k10 is -1 and the k16 turned out to be 0. In the assay with Skin-2 model ZK1301 (setting [3]), this molecule gave a k19 of 0, a scce of 0, a tgfbeta-2 of 2 and a trans gk of -1.

The term Ki denotes the equilibrium dissociation constant of an inhibitor or competing ligand from its target.
